Results as given in patent publication US20200069592A1, “HSP90 INHIBITOR ORAL FORMULATIONS AND RELATED METHODS” (Samus Therapeutics, Inc., priority 2017, published 2020).
Marks after values point to notes of the source that are not given here.

Assays:
[1] = test system: MDA-MB-468 triple negative breast tumor xenograft; assay: MDA-MB-468 triple negative breast tumor xenograft model, tumor volume (IP vs PO); format: in vivo, Nu/Nu (athymic nude) female mice; details: for Mean tumor volume as % of mean tumor volume in control mice receiving vehicle alone / Mean tumor volume as % of mean tumor volume in mice receiving 75 mg/kg orally or intraperitoneally: Day 89; for Mean tumor volume on Day 117 relative to the same mice at Day 1: treatment stopped Day 103
Procedure: Mice were identified with a transponder.
To form the xenografts, 1×10^7 MDA-MB-468 cells suspended in 0.1 ml of 50% Matrigel/50% Media (1:1) were injected into the mammary fat pad of each mouse. Treatment was initiated when the mean tumor size reached 100-150 mm^3 and the day of treatment initiation was designated as Day 1. Subcutaneous tumor size was calculated as tumor volume (mm^3)=(a×b^2/2), where ‘b’ is the smallest diameter and ‘a’ is the largest diameter.
Oral gavage was used for oral administration.

[2] = Plasma pharmacokinetics after single oral dose in ORA-Plus or SyrSpend SF (Example 6), LC-MS/MS; format: in vivo, Sprague Dawley rats; details: for % AUC0-last test vs reference: rats, ratio of group averages; for AUC(0-t) / Cmax / Tmax / AUC(0-inf) / half-life: female, Sprague Dawley, rat, plasma, po
[3] = Tolerability (body weight, toxicity, maximum tolerated dose) in the Example 5 rat study; format: in vivo; details: female, Sprague Dawley, rat, in vivo, iv
Procedure: Ninety-four total animals were observed thereafter. The parenteral administration is performed by tail vein injection.

in vivo = details: female, Nu/Nu (NU-Foxn1^nu) athymic nude, mouse, ip
Source text: (§1) The animals used in this study were Nu/Nu (NU-Foxn1^nu) (athymic nude) physiologically normal female mice supplied by Charles River. At the time of inoculation, the age of the animals was 5-8 weeks. Sixty total animals were used and animals were not replaced during the course of this study. Mice were identified with a transponder. The animals were housed in individually ventilated microisolator cages and allowed to acclimate for at least 5-7 days. The animals were maintained under pathogen-free conditions and given Teklad Global Diet® 2920x irradiated pellets for food and autoclaved water ad libitum.
(§2) Compound ldihydrochloride (2HCl) was provided as a crystalline powder and stored at 2-8° C. protected from light. The administered form of Compound 1 2HCl was a clear solution. For intraperitoneal administration, Compound 1 2HCl was reconstituted in PBS. For oral administration, Compound 1 2HCl was reconstituted in 0.5% Methylcellulose (MC) in water. The salt: base ratio was 1.14:1 (i.e., to obtain 100 mg of Compound 1 free base, 114 mg of Compound 1 dihydrochloride salt was weighed out). Dose levels of Compound 1 were based on the free base, not the salt. Compound 1 2HCl in administered form was prepared fresh immediately prior to use.
(§3) Animals were randomized using random equilibration of tumor volume into one of six study groups, as shown in Table 22 (Groups 1-6), with 10 animals in each group.
(§4) Group 1 was administered vehicle control alone (without Compound 1 2HCl) intraperitoneally (IP) three times weekly (TIW) until the end of the study. PBS was used as the vehicle control and was administered at a volume of 10 mL/kg.
(§5) Groups 2-6 were administered Compound 1 2HCl at a volume of 10 mL/kg three times weekly (TIW) until the end of the study with the doses as described next.
(§6) Group 2 received 75 mg/kg Compound 1 2HCl via intraperitoneal administration.
(§7) Group 3 received 75 mg/kg Compound 1 2HCl via oral administration (PO). Group 4 received 100 mg/kg Compound 1 2HCl via oral administration. Group 5 received 125 mg/kg Compound 1 2HCl via oral administration. Group 6 received 150 mg/kg Compound 1 2HCl via oral administration. […]
(§8) Tumor volume and body weight were measured twice weekly with gross observations daily. […]
(§9) For data analysis, simple statistics (ANOVA) will be conducted on tumor volumes to verify significance of treatment groups relative to control. Growth curves will be constructed and percent tumor growth inhibition (TGI) will be calculated as a means to assess the effect of the single-agent therapy regimens. […]
(§10) The Materials and Methods used were the same as discussed above for Example 3, except for the lengths of treatment for Groups 1-4. […] Tumor growth and body weight were measured twice weekly with gross observations daily for Groups 1-5 until Day 117.

[4] = Body weight change / dose tolerance in the MDA-MB-468 xenograft study
Source text: as §1, §2, §3, §4, §5, §6, §7, §8, §9, §10

[5] = G5: 2HCl, 24 mg/kg single oral dose, ORA-plus, rat plasma, n = 4
[6] = G6: 2HCl, 48 mg/kg single oral dose, ORA-plus, rat plasma
[7] = G12: 2HCl, 24 mg/kg single oral dose, SyrSpend, rat plasma, n = 1
[8] = G13: 2HCl, 48 mg/kg single oral dose, SyrSpend, n = 2
[9] = G14: 2HCl, 60 mg/kg single oral dose, SyrSpend, n = 3
[10] = 24 mg/kg, G5: 2HCl, 24 mg/kg single oral dose, ORA-plus, rat plasma
[11] = 24 mg/kg, G5: 2HCl, 24 mg/kg single oral dose, ORA-plus, rat plasma, n = 4
[12] = 24 mg/kg, G12: 2HCl, 24 mg/kg single oral dose, SyrSpend, rat plasma
[13] = 24 mg/kg, G12: 2HCl, 24 mg/kg single oral dose, SyrSpend, rat plasma, n = 1
[14] = 48 mg/kg, G6: 2HCl, 48 mg/kg single oral dose, ORA-plus, rat plasma
[15] = 48 mg/kg, G13: 2HCl, 48 mg/kg single oral dose, SyrSpend
[16] = 48 mg/kg, G13: 2HCl, 48 mg/kg single oral dose, SyrSpend, n = 2
[17] = 60 mg/kg, G14: 2HCl, 60 mg/kg single oral dose, SyrSpend
[18] = 60 mg/kg, G14: 2HCl, 60 mg/kg single oral dose, SyrSpend, n = 3

## CC(C)NCCCn1c(Sc2cc3c(cc2I)OCO3)nc2c(N)ncnc21 [Compound 1 2HCl]
[1]; 75 mg/kg IP, TIW, Day 36
  Effect on tumor growth (tumor volume): tumor inhibition was observed
[1]; 75 mg/kg IP, TIW
  Mean tumor volume as % of mean tumor volume in control mice receiving vehicle alone: about 20%
[1]; 75 mg/kg IP
  Mean tumor volume on Day 117 relative to the same mice at Day 1: 1.7-1.9 times
[1]; 75 mg/kg PO vs same dose IP, first 14 days of treatment
  Effect on tumor growth (tumor volume): inhibited tumor growth slightly more than intraperitoneal administration
[1]; 75 mg/kg PO, TIW, Day 36
  Effect on tumor growth (tumor volume): tumor inhibition was observed
[1]; 75 mg/kg PO, TIW
  Mean tumor volume as % of mean tumor volume in control mice receiving vehicle alone: about 20%
[1]; 75 mg/kg PO
  Mean tumor volume on Day 117 relative to the same mice at Day 1: 1.7-1.9 times
[1]; 100 mg/kg PO, TIW, 89 days
  Effect on tumor growth (tumor volume): tumor regressive
[1]; 100 mg/kg PO, TIW, Day 36
  Effect on tumor growth (tumor volume): Tumor inhibition was also observed
[1]; 100 mg/kg PO, TIW
  Mean tumor volume as % of mean tumor volume in mice receiving 75 mg/kg orally or intraperitoneally: about 50%
[1]; 100 mg/kg PO, after treatment stopped Day 103, study to Day 117
  Mean tumor volume as % of mean tumor volume in the same mice at day 1: about 63%
[1]; 125 mg/kg PO, TIW (dosing holiday Day 29), 36 day period
  Effect on tumor growth (tumor volume): caused tumor regression
[1]; 125 mg/kg PO, TIW with dosing holidays, dosing ended Day 78
  Mean tumor volume as % of mean tumor volume in mice receiving 75 mg/kg orally or intraperitoneally: about 50%
[1]; 125 mg/kg PO, TIW with dosing holidays, 89 days
  Effect on tumor growth (tumor volume): tumor regressive
[1]; 125 mg/kg PO, after treatment stopped Day 78, study to Day 117
  Mean tumor volume as % of mean tumor volume in the same mice at day 1: ~70%
[1]; Group 2: 75 mg/kg IP in PBS, TIW, Study Days 1-8
  Effect on tumor growth (tumor volume): did not inhibit tumor growth
[1]; Group 3: 75 mg/kg PO in 0.5% MC, TIW, Day 8, compared with Group 2
  Effect on tumor growth (tumor volume): tumor growth was reduced
[1]; Group 4: 100 mg/kg PO, TIW, Days 1-8, compared to Group 1
  Effect on tumor growth (tumor volume): Inhibition of tumor growth
[1]; Group 5: 125 mg/kg PO, TIW, Days 1-8
  Effect on tumor growth (tumor volume): greatest suppression of tumor growth
[1]; Group 6: 150 mg/kg PO, TIW, Days 1-8
  Effect on tumor growth (tumor volume): greatest suppression of tumor growth
[2]; [5]
  AUC % Extrap: 5.00 ± 4.92 %
  Cl_F: 6.14 ± 2.32 L/h/kg
  Vz_F: 15.12 ± 3.53 L/kg
[2]; [6]
  AUC % Extrap: 1.42 ± 0.79%
  Cl_F: 6.63 ± 2.82 L/h/kg
  Vz_F: 33.74 ± 16.37 L/kg
[2]; [7]
  AUC % Extrap: 0.47^a %
  Cl_F: 4.17^a L/hr/kg
  Vz_F: 17.51^a L/kg
[2]; [8]
  AUC % Extrap: 6.76 ± 5.82 %
  Cl_F: 22.85 ± 5.76 L/h/kg
  Vz_F: 139.42 ± 13.22 L/kg
[2]; [9]
  AUC % Extrap: 0.69 ± 0.34 %
  Vz_F: 27.15 ± 11.86 L/kg
[2]; Group 5 (24 mg/kg 2HCl ORA-plus) vs Group 6 (48 mg/kg 2HCl ORA-plus)
  % AUC0-last test vs reference: 53.01%
[2]; Group 5 (24 mg/kg 2HCl ORA-plus) vs Group 12 (24 mg/kg 2HCl SyrSpend)
  % AUC0-last test vs reference: 84.12%
[2]; Group 6 (48 mg/kg 2HCl ORA-plus) vs Group 13 (48 mg/kg 2HCl SyrSpend)
  % AUC0-last test vs reference: 298.14%
[2]; Group 6 (48 mg/kg 2HCl ORA-plus) vs Group 14 (60 mg/kg 2HCl SyrSpend)
  % AUC0-last test vs reference: 62.79%
[2]; Group 12 (24 mg/kg 2HCl SyrSpend) vs Group 13 (48 mg/kg 2HCl SyrSpend)
  % AUC0-last test vs reference: 187.87%
[2]; Group 12 (24 mg/kg 2HCl SyrSpend) vs Group 14 (60 mg/kg 2HCl SyrSpend)
  % AUC0-last test vs reference: 39.57%
[2]; Group 13 (48 mg/kg 2HCl SyrSpend) vs Group 14 (60 mg/kg 2HCl SyrSpend)
  % AUC0-last test vs reference: 21.06%
[2]; [10]
  AUC(0-t): 4200 ± 1120 ng·h/mL
  Cmax: 1070 ± 221 ng/mL
  Tmax: 2.4 ± 0.89 h
[2]; [11]
  AUC(0-inf): 4250 ± 1230 ng·h/mL
  half-life: 1.8 ± 0.47 h
[2]; [12]
  AUC(0-t): 5000 ± 1260 ng·h/mL
  Cmax: 1030 ± 151 ng/mL
  Tmax: 3.2 ± 1.1 h
[2]; [13]
  AUC(0-inf): 5750 ng·h/mL
  half-life: 2.91 h
[2]; [14]
  AUC(0-inf): 8040 ± 2410 ng·h/mL
  AUC(0-t): 7930 ± 2380 ng·h/mL
  Cmax: 1120 ± 429 ng/mL
  Tmax: 2.8 ± 1.1 h
  half-life: 3.5 ± 0.53 h
[2]; [15]
  AUC(0-t): 2660 ± 946 ng·h/mL
  Cmax: 1990 ± 787 ng/mL
  Tmax: 0.7 ± 0.27 h
[2]; [16]
  AUC(0-inf): 2170 ± 548 ng·h/mL
  half-life: 4.42 ± 1.52 h
[2]; [17]
  AUC(0-t): 12600 ± 5100 ng·h/mL
  Cmax: 1710 ± 314 ng/mL
  Tmax: 2.4 ± 2.07 h
[2]; [18]
  AUC(0-inf): 11500 ± 4440 ng·h/mL
  half-life: 3.2 ± 0.4 h
[2]; single oral dose, ORA-Plus or SyrSpend, data not shown
  Time point up to which all animals had quantifiable plasma levels: ≥ 8 h
[3]
  MTD: 24 mg/kg
In vivo
  MTD at 103 days: 75 mg/kg
[4]; 100 mg/kg PO, during and after treatment (to Day 117)
  Body weight change: minimal effects on body weight
[4]; Group 2: 75 mg/kg IP, Day 5 and Day 8
  Body weight change: greater decrease in body weight
